Measured values published in publication PMC4947906, “Two fatty acyl reductases involved in moth pheromone biosynthesis” (Scientific Reports, 2016).

Key:
SexpgFAR I = biological target: T1, SexpgFAR I (Spodoptera exigua, UniProt A0A0F6NS86); assay: yeast expression, fatty alcohol by GC-MS; format: cell-based; conditions: fed as methyl ester 0.5 mM, 48 h, 30 °C, the acyl-CoA itself was not added
T1 construct: gene pgFARI; pYES2.1/V5-His TOPO in S. cerevisiae INVSc1
T1 sequence (A0A0F6NS86 1-459): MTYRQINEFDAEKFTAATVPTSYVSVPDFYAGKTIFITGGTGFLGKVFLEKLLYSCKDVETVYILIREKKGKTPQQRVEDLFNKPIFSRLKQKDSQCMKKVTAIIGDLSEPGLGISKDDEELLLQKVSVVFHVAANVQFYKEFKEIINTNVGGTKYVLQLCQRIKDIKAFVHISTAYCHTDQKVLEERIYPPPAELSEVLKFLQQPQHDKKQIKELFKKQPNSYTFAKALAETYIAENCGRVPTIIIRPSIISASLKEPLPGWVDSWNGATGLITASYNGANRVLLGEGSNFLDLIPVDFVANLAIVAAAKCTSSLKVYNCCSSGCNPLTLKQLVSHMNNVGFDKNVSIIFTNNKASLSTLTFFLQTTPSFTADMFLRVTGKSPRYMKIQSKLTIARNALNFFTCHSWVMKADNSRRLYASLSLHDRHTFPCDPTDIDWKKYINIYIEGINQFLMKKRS

SexpgFAR II = biological target: T2, SexpgFAR II (Spodoptera exigua, UniProt A0A0P0IV71); assay: yeast expression, fatty alcohol by GC-MS; format: cell-based; conditions: fed as methyl ester 0.5 mM, 48 h, 30 °C; the acyl-CoA itself was not added
T2 construct: gene pgFARII; pYES2.1/V5-His TOPO in S. cerevisiae INVSc1
T2 sequence (A0A0P0IV71 1-454): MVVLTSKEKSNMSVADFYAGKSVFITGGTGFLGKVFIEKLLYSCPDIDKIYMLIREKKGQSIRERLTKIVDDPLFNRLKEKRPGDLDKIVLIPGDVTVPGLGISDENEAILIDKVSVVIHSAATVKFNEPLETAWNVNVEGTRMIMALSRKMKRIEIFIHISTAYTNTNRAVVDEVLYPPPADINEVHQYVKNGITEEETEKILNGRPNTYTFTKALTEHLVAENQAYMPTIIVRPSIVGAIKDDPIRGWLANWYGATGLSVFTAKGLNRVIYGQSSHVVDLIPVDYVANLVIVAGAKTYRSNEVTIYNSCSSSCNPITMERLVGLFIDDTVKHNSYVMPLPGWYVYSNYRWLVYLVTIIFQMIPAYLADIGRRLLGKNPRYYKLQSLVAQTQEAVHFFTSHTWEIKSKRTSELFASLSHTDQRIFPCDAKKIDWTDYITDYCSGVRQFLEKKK

Structure (SMILES) | yeast expression, fatty alcohol by GC-MS (SexpgFAR II) | also measured
CCCCCCCCCCCCCCCC(=O)SCCNC(=O)CCNC(=O)[C@H](O)C(C)(C)COP(=O)(O)OP(=O)(O)OC[C@H]1O[C@@H](n2cnc3c(N)ncnc32)[C@H](O)[C@@H]1OP(=O)(O)O [C16:Acyl] |  | yeast expression, fatty alcohol by GC-MS (SexpgFAR I; also endogenous C16 acyl of yeast): SexpgFAR I-transformed yeast cells produced a significantly higher quantity of C16 fatty alcohol
CCCC/C=C\CCCCCCCC(=O)OC [Z9-14:acyl] | SexpgFAR II exhibits specificity for Z9-14:acid and Z9E12-14:acid precursors | 
C/C=C/C/C=C\CCCCCCCC(=O)OC [Z9E12-14:acyl] | SexpgFAR II exhibits specificity for Z9-14:acid and Z9E12-14:acid precursors | 
CCCC/C=C\CCCCCCCCCC(=O)OC [Z11-16:acyl] |  | yeast expression, fatty alcohol by GC-MS (SexpgFAR I): SexpgFAR I produced significantly more Z11-16:OH than SexpgFAR II
